Like-named read-outs stand apart in the source and are kept apart here.
What was measured:
Format in all cases: cell-based
IL-1α = test: Inhibition of IL-1 production by stimulated human peripheral blood leukocytes in vitro; conditions: PBL; for inhibition at 10 µM / inhibition at 50 µM: Homo sapiens, Leukocyte, read-out: Percentage of inhibition of IL-1α production
[1] = tested on: human peripheral blood mononuclear cells (PBMC); test: Human T-cell proliferation in vitro (3H-thymidine incorporation); conditions: for inhibition at 10 µM / inhibition at 50 µM: Homo sapiens, PBMC, read-out: Percentage of inhibition of proliferation of stimulated PBMC
Method in brief: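 Donor PBMC isolated on Histopaque, 5×10^4 cells/well cultured 3 days at 37 °C with PHA (2.5 μg/mL) or PMA (10 ng/mL) plus ionomycin (500 ng/mL), and compound at 50 μM or 10 μM. 3H-thymidine pulse during final 18 h; % inhibition versus stimulated untreated cpm.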

IL-2 = test: Inhibition of IL-2 production by stimulated human PBMC in vitro; conditions: PHA stimulated, 3 days
Description: Heparinized peripheral blood was obtained from healthy donors, and peripheral blood mononuclear cells (PBMC) were isolated by Histopaque 1077 (Sigma, USA) density centrifugation on 400 g for 30 minutes. Collected PBMC were centrifuged in plasma on 400 g/10 min, resuspended and washed in RPMI 1640 (Institute of Immunology, Croatia) by centrifugation.
Peripheral blood mononuclear cells (PBMC), isolated as described above, were seeded in a 48-well plate at a concentration of 1×10^6 cells per well in the RPMI culture medium described above. Cells were stimulated with 10 μg/mL phytohaemagglutinin (PHA) (Sigma, USA) and incubated at 37° C., 5% CO2 in 90% humidity with tested compounds (10 and 50 μM) for 3 days. Cytokine concentrations were determined in supernatants by sandwich ELISA, using capture and detection antibodies (R&D, USA) according to the manufacturer's recommendations.
Inhibition (as percentage) was calculated using the following formula: % inhibition=(1−concentration of cytokines in sample/concentration of cytokines in positive control)×100. The positive control refers to stimulated samples, not treated with substances.

IL-6 = test: Inhibition of IL-6 production by stimulated human peripheral blood leukocytes in vitro; conditions: PBL; for inhibition at 10 µM / inhibition at 50 µM: Homo sapiens, Leukocyte, read-out: Percentage of inhibition of IL-6 production
Method in brief: (§1)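 Dextran-isolated human PBL (3-5×10^6 per well) in RPMI with 10% FCS were preincubated 2 h at 37 °C with compounds at 50 μM or 10 μM final, then stimulated overnight with 2 μg/mL LPS, 1 μg/mL PMA or 120 μg/mL zymosan. Supernatant cytokines by sandwich ELISA; % inhibition versus stimulated untreated control.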

TNF-α = test: Inhibition of TNF-α production by stimulated human peripheral blood leukocytes in vitro; conditions: PBL; for inhibition at 10 µM / inhibition at 50 µM: Homo sapiens, Leukocyte, read-out: Percentage of inhibition of TNF-α production
Method in brief: as §1

IL-8 = test: Inhibition of IL-8 production by stimulated human peripheral blood leukocytes in vitro; conditions: PBL; for inhibition at 10 µM / inhibition at 50 µM: Homo sapiens, Leukocyte, read-out: Percentage of inhibition of IL-8 production
Method in brief: as §1

[2] = zymosan stimulated, compound 10 μM
[3] = zymosan stimulated, compound 50 μM
[4] = PMA + ionomycin stimulated, compound 10 μM
[5] = PMA + ionomycin stimulated, compound 50 μM

CCC1OC(=O)C(C)C(O)C(C)C(OC2OC(C)CC(N(C)C)C2O)C(C)(O)CC(C)CN(C(=S)NCc2ccccc2)C(C)C(O)C1(C)O (stereo not drawn) [Compound 1]
Percentage of inhibition of IL-1α production (IL-1α; LPS stimulated, compound 10 μM): 52%
Percentage of inhibition of IL-1α production (IL-1α; LPS stimulated, compound 50 μM): 78%
Percentage of inhibition of IL-1α production (IL-1α; PMA stimulated, compound 10 μM): 38%
Percentage of inhibition of IL-1α production (IL-1α; PMA stimulated, compound 50 μM): 47%
Percentage of inhibition of IL-1α production (IL-1α; [2]): 65%
Percentage of inhibition of IL-1α production (IL-1α; [3]): 57%
Percentage of inhibition of proliferation of stimulated PBMC ([1]; PHA stimulated, compound 10 μM): 21%
Percentage of inhibition of proliferation of stimulated PBMC ([1]; PHA stimulated, compound 50 μM): 95%
Percentage of inhibition of proliferation of stimulated PBMC [1, 4]: 10%
Percentage of inhibition of proliferation of stimulated PBMC [1, 5]: 52%
Percentage of inhibition of IL-2 production (IL-2; compound 10 μM): 61%
Percentage of inhibition of IL-2 production (IL-2; compound 50 μM): 95%
Percentage of inhibition of IL-6 production (IL-6; LPS stimulated, compound 10 μM): 4%
Percentage of inhibition of IL-6 production (IL-6; LPS stimulated, compound 50 μM): 22%
Percentage of inhibition of IL-6 production (IL-6; PMA stimulated, compound 10 μM): 22%
Percentage of inhibition of IL-6 production (IL-6; PMA stimulated, compound 50 μM): 21%
Percentage of inhibition of IL-6 production (IL-6; [2]): 23%
Percentage of inhibition of IL-6 production (IL-6; [3]): 59%
Percentage of inhibition of TNF-α production (TNF-α; LPS stimulated, compound 10 μM): 0%
Percentage of inhibition of TNF-α production (TNF-α; LPS stimulated, compound 50 μM): 33%
Percentage of inhibition of TNF-α production (TNF-α; PMA stimulated, compound 10 μM): 2%
Percentage of inhibition of TNF-α production (TNF-α; PMA stimulated, compound 50 μM): 37%
Percentage of inhibition of TNF-α production (TNF-α; [2]): 34%
Percentage of inhibition of TNF-α production (TNF-α; [3]): 72%
Percentage of inhibition of IL-8 production (IL-8; LPS stimulated, compound 10 μM): 40%
Percentage of inhibition of IL-8 production (IL-8; LPS stimulated, compound 50 μM): 0%
Percentage of inhibition of IL-8 production (IL-8; PMA stimulated, compound 10 μM): 4%
Percentage of inhibition of IL-8 production (IL-8; PMA stimulated, compound 50 μM): 0%
Percentage of inhibition of IL-8 production (IL-8; [2]): 12%
Percentage of inhibition of IL-8 production (IL-8; [3]): 79%

CC[C@H]1OC(=O)[C@H](C)[C@@H](O[C@H]2C[C@@](C)(OC)[C@@H](O)[C@H](C)O2)[C@H](C)[C@@H](O[C@@H]2O[C@H](C)C[C@H](N(C)C)[C@H]2O)[C@](C)(OC)C[C@@H](C)C(=O)[C@H](C)[C@@H](O)[C@]1(C)O [Clarithromycin, clarithromycin, reference compound]
inhibition at 10 µM (IL-1α; LPS stimulated, compound 10 μM): 0%
inhibition at 50 µM (IL-1α; LPS stimulated, compound 50 μM): 0%
inhibition at 10 µM (IL-1α; PMA stimulated, compound 10 μM): 26%
inhibition at 50 µM (IL-1α; PMA stimulated, compound 50 μM): 33%
inhibition at 10 µM (IL-1α; [2]): 36%
inhibition at 50 µM (IL-1α; [3]): 59%
inhibition at 10 µM ([1]; PHA stimulated, compound 10 μM): 0%
inhibition at 50 µM ([1]; PHA stimulated, compound 50 μM): 7%
inhibition at 10 µM [1, 4]: 9%
inhibition at 50 µM [1, 5]: 14%
inhibition at 10 µM (IL-2; Homo sapiens, 72 h, compound 10 μM, read-out: Percentage of inhibition of IL-2 production): 0%
inhibition at 50 µM (IL-2; Homo sapiens, 72 h, compound 50 μM, read-out: Percentage of inhibition of IL-2 production): 3%
inhibition at 10 µM (IL-6; LPS stimulated, compound 10 μM): 11%
inhibition at 50 µM (IL-6; LPS stimulated, compound 50 μM): 0%
inhibition at 10 µM (IL-6; PMA stimulated, compound 10 μM): 0%
inhibition at 50 µM (IL-6; PMA stimulated, compound 50 μM): 0%
inhibition at 10 µM (IL-6; [2]): 28%
inhibition at 50 µM (IL-6; [3]): 0%
inhibition at 10 µM (TNF-α; LPS stimulated, compound 10 μM): 0%
inhibition at 50 µM (TNF-α; LPS stimulated, compound 50 μM): 0%
inhibition at 10 µM (TNF-α; PMA stimulated, compound 10 μM): 0%
inhibition at 50 µM (TNF-α; PMA stimulated, compound 50 μM): 0%
inhibition at 10 µM (TNF-α; [2]): 0%
inhibition at 50 µM (TNF-α; [3]): 0%
inhibition at 10 µM (IL-8; LPS stimulated, compound 10 μM): 23%
inhibition at 50 µM (IL-8; LPS stimulated, compound 50 μM): 0%
inhibition at 10 µM (IL-8; PMA stimulated, compound 10 μM): 33%
inhibition at 50 µM (IL-8; PMA stimulated, compound 50 μM): 0%
inhibition at 10 µM (IL-8; [2]): 0%
inhibition at 50 µM (IL-8; [3]): 0%
